Here are results for 24 molecules from patent US20260042764A1, “COMPOSITIONS AND METHODS FOR INHIBITION OF KRAS” (TheRas, Inc., priority 2022, published 2026).

For assay [1], the target named is T1, Avi-KRAS G12V (1-169) GppNHp/RAF1 RBD-3xFLAG (52-151) (Homo sapiens, UniProt P01116, G12V).
T1 construct: Avi-KRAS G12V (1-169)
Put plainly: Raf1-KRAS G12V-GppNHP disruption HTRF assay (Biological Example 1). It is filed as binding. The note with it: KRAS G12V, GppNHp-loaded; Table 11. An outline of the steps: (§1)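 HTRF PPI disruption; buffer 50 mM Tris pH 7.5, 100 mM NaCl, 5 mM MgCl2, 0.1% BSA, 0.01% Tween, 10% DMSO. Protein mix 1 h RT shaking, reagent mix 1 h RT shaking. Data as % activity vs DMSO (100%).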
For orientation: TR-FRET usually uses a lanthanide donor and a delayed reading to cut background.

For assay [2], the target named is T2, Avi-KRAS G12D (1-169) GppNHp/RAF1 RBD-3xFLAG (52-151) (Homo sapiens, UniProt P01116, G12D).
T2 construct: Avi-KRAS G12D (1-169)
T2 sequence (P01116 1-169 isoform P01116-2 G12D): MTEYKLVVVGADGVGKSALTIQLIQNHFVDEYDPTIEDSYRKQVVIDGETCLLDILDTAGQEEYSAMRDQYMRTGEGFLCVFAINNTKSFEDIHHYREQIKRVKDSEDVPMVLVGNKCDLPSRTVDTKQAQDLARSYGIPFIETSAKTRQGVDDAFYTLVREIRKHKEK
Put plainly: Raf1-KRAS G12D-GppNHP disruption HTRF assay (Biological Example 1). The format is binding. The note with it: KRAS G12D, GppNHp-loaded; Table 11. The procedure, abridged:
as §1

The target in assay [3] is T3, Avi-KRAS G12R (1-169) GppNHp/RAF1 RBD-3xFLAG (52-151) (Homo sapiens, UniProt P01116, G12R).
T3 construct: Avi-KRAS G12R (1-169)
T3 sequence (P01116 1-169 isoform P01116-2 G12R): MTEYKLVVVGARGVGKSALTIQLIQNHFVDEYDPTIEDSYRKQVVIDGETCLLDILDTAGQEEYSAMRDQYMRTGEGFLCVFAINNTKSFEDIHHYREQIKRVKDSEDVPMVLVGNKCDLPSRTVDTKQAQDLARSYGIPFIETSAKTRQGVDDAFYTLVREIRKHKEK
Put plainly: Raf1-KRAS G12R-GppNHP disruption HTRF assay (Biological Example 1). It is filed as binding. The note with it: KRAS G12R, GppNHp-loaded; Table 11. An outline of the steps: as §1

The subject of assay [4] is GP2d cells (KRAS G12D). Put plainly: Cell-based pERK HTRF assay in GP2d cell (Biological Example 2). The note with it: GP2d, GP2d (KRAS G12D) cells, pERK HTRF. An outline of the steps: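 Phospho-ERK is measured by HTRF following a 60 min compound exposure at 0.25% DMSO, with a 9-point half-log curve topping at 1 μM or 100 nM.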
Assay [5] deals with T4, Avi-KRAS WT (1-169) GppNHp/RAF1 RBD-3xFLAG (52-151) (Homo sapiens, UniProt P01116).
T4 construct: Avi-KRAS WT (1-169)
T4 sequence (P01116 1-169 isoform P01116-2): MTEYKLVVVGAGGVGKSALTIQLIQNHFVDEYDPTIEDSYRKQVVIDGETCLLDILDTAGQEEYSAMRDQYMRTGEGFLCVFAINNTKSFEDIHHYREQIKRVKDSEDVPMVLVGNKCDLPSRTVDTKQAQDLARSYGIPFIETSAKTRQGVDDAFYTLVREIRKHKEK
Put plainly: Raf1-KRAS WT-GppNHP disruption HTRF assay (Biological Example 1). It is filed as binding. Conditions: KRAS WT, GppNHp-loaded; Table 11. An outline of the steps:
as §1

T1 sequence (P01116 1-169 isoform P01116-2 G12V): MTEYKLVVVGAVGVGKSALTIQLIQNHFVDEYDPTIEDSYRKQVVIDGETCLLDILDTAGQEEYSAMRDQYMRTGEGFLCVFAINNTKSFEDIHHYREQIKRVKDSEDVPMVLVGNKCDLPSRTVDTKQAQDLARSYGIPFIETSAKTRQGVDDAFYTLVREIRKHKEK

As to `N#Cc1c(N)sc2c(F)ccc(-c3c(C(F)(F)F)cc4c(N5CC6CCC(C5)O6)nc(OC[C@@]56CCCN5C[C@H](F)C6)nc4c3F)c12` [Compound 130], the IC50 in assay [1] was 1 to 10 µM; in assay [2], 0.1 to 1 µM; in assay [3], 0.1 to 1 µM; in assay [4], < 0.1 µM; in assay [5] it was 0.1 to 1 µM.
Regarding `N#Cc1c(N)sc2c(F)ccc(-c3c(C(F)(F)F)cc4c(N5C6CCC5COC6)nc(OC[C@@]56CCCN5C[C@H](F)C6)nc4c3F)c12` [Compound 131], the 50% inhibitory concentration (IC50) was 0.1 to 1 µM in assay [1]; 0.1 to 1 µM in assay [2]; 0.1 to 1 µM in assay [3]; < 0.1 µM in assay [4]; 0.1 to 1 µM in assay [5].
Take `CN(c1nc(OC[C@@]23CCCN2C[C@H](F)C3)nc2c(F)c(-c3ccc(F)c4sc(N)c(C#N)c34)c(C(F)(F)F)cc12)[C@@H]1CCOC1` [Compound 132]: the half-maximal inhibitory concentration (IC50) in assay [1] is 0.1 to 1 µM; in assay [2], 0.1 to 1 µM; in assay [3], 0.1 to 1 µM; in assay [4], < 0.1 µM; in assay [5], 0.1 to 1 µM.
For `CN(c1nc(OC[C@@]23CCCN2C[C@H](F)C3)nc2c(F)c(-c3ccc(F)c4sc(N)c(C#N)c34)c(C(F)(F)F)cc12)[C@H]1CCOC1` [Compound 133], the IC50 in assay [1] is 0.1 to 1 µM; in assay [2] it was 0.1 to 1 µM; in assay [3], 0.1 to 1 µM; in assay [4], < 0.1 µM; in assay [5], 0.1 to 1 µM.
With `C[C@@H]1COCCN1c1nc(OC[C@@]23CCCN2C[C@H](F)C3)nc2c(F)c(-c3ccc(F)c4sc(N)c(C#N)c34)c(C(F)(F)F)cc12` [Compound 134], the half-inhibitory concentration (IC50) in assay [1] was 1 to 10 µM; in assay [2], 0.1 to 1 µM; in assay [3], 0.1 to 1 µM; in assay [4], < 0.1 µM; in assay [5], 0.1 to 1 µM.
`C[C@H]1COCCN1c1nc(OC[C@@]23CCCN2C[C@H](F)C3)nc2c(F)c(-c3ccc(F)c4sc(N)c(C#N)c34)c(C(F)(F)F)cc12` [Compound 135]: the IC50 in assay [1] is 0.1 to 1 µM; in assay [2], < 0.1 µM; in assay [3], 0.1 to 1 µM; in assay [4] it was < 0.1 µM; in assay [5], 0.1 to 1 µM.
For the molecule `N#CC[C@@H]1CN(c2nc(OC[C@@]34CCCN3C[C@H](F)C4)nc3c(F)c(-c4ccc(F)c5sc(N)c(C#N)c45)c(C(F)(F)F)cc23)CCO1` [Compound 136], the IC50 in assay [1] is 1 to 10 µM; in assay [2], 0.1 to 1 µM; in assay [3], 0.1 to 1 µM; in assay [4], < 0.1 µM; in assay [5] it was 0.1 to 1 µM.
Turning to `N#CC[C@H]1CN(c2nc(OC[C@@]34CCCN3C[C@H](F)C4)nc3c(F)c(-c4ccc(F)c5sc(N)c(C#N)c45)c(C(F)(F)F)cc23)CCO1` [Compound 137], the IC50 in assay [1] was 1 to 10 µM; in assay [2], 0.1 to 1 µM; in assay [3], 0.1 to 1 µM; in assay [4] it was < 0.1 µM; in assay [5], 0.1 to 1 µM.
As to `C[C@@H]1CN(c2nc(OC[C@@]34CCCN3C[C@H](F)C4)nc3c(F)c(-c4ccc(F)c5sc(N)c(C#N)c45)c(C(F)(F)F)cc23)[C@@H](C)CO1` [Compound 140], the 50% inhibitory concentration (IC50) in assay [1] is 1 to 10 µM; in assay [2], 0.1 to 1 µM; in assay [3] it was 1 to 10 µM; in assay [4] it was < 0.1 µM; in assay [5], 1 to 10 µM.
Regarding `C[C@@H]1CN(c2nc(OC[C@@]34CCCN3C[C@H](F)C4)nc3c(F)c(-c4ccc(F)c5sc(N)c(C#N)c45)c(C(F)(F)F)cc23)CCO1` [Compound 141], the IC50 in assay [1] is 1 to 10 µM; in assay [2], 0.1 to 1 µM; in assay [3] it was 0.1 to 1 µM; in assay [4], < 0.1 µM; in assay [5] it was 0.1 to 1 µM.
`C[C@H]1CN(c2nc(OC[C@@]34CCCN3C[C@H](F)C4)nc3c(F)c(-c4ccc(F)c5sc(N)c(C#N)c45)c(C(F)(F)F)cc23)CCO1` [Compound 142]: the concentration for half-maximal inhibition (IC50) is 1 to 10 µM in assay [1]; 0.1 to 1 µM in assay [2]; 0.1 to 1 µM in assay [3]; < 0.1 µM in assay [4]; 0.1 to 1 µM in assay [5].
On to `C[C@@H]1CN(c2nc(OC[C@@]34CCCN3C[C@H](F)C4)nc3c(F)c(-c4ccc(F)c5sc(N)c(C#N)c45)c(C(F)(F)F)cc23)C[C@H](C)O1` [Compound 143], for which the IC50 in assay [1] lay within 1 to 10 µM; in assay [2], 0.1 to 1 µM; in assay [3], 1 to 10 µM; in assay [4] it was 0.1 to 1 µM; in assay [5] it was 0.1 to 1 µM.
For the molecule `C[C@@H]1CN(c2nc(OC[C@@]34CCCN3C[C@H](F)C4)nc3c(F)c(-c4ccc(F)c5sc(N)c(C#N)c45)c(C(F)(F)F)cc23)C[C@@H](C)O1` [Compound 144], the half-inhibitory concentration (IC50) in assay [1] was 1 to 10 µM; in assay [2], 0.1 to 1 µM; in assay [3], 0.1 to 1 µM; in assay [4] it was < 0.1 µM; in assay [5], 0.1 to 1 µM.
Consider `N#Cc1c(N)sc2c(F)ccc(-c3c(C(F)(F)F)cc4c(N5CC6CCC5CO6)nc(OC[C@@]56CCCN5C[C@H](F)C6)nc4c3F)c12` (stereo partly drawn) [Compound 146], for which the IC50 in assay [1] is 0.1 to 1 µM; in assay [2], 0.1 to 1 µM; in assay [3], 0.1 to 1 µM; in assay [4] it was < 0.1 µM; in assay [5] it was 0.1 to 1 µM.
Consider `N#Cc1c(N)sc2c(F)ccc(-c3c(C(F)(F)F)cc4c(N5CC6(COC6)C5)nc(OC[C@@]56CCCN5C[C@H](F)C6)nc4c3F)c12` [Compound 149], for which the 50% inhibitory concentration (IC50) in assay [1] was 1 to 10 µM; in assay [2] it was 0.1 to 1 µM; in assay [3] it was 1 to 10 µM; in assay [4], < 0.1 µM; in assay [5], 0.1 to 1 µM.
`N#Cc1c(N)sc2c(F)ccc(-c3c(C(F)(F)F)cc4c(N5CCC(F)(F)CC5)nc(OC[C@@]56CCCN5C[C@H](F)C6)nc4c3F)c12` [Compound 150]: the IC50 was 1 to 10 µM in assay [1]; 0.1 to 1 µM in assay [2]; 0.1 to 1 µM in assay [3]; < 0.1 µM in assay [4]; 0.1 to 1 µM in assay [5].
On to `N#Cc1c(N)sc2c(F)ccc(-c3c(C(F)(F)F)cc4c(N5CCC(F)CC5)nc(OC[C@@]56CCCN5C[C@H](F)C6)nc4c3F)c12` [Compound 151], for which the IC50 in assay [1] is 0.1 to 1 µM; in assay [2], 0.1 to 1 µM; in assay [3], 0.1 to 1 µM; in assay [4], < 0.1 µM; in assay [5], 0.1 to 1 µM.
In the case of `CCN(CC)c1nc(OC[C@@]23CCCN2C[C@H](F)C3)nc2c(F)c(-c3ccc(F)c4sc(N)c(C#N)c34)c(C(F)(F)F)cc12` [Compound 152], the concentration for half-maximal inhibition (IC50) in assay [1] was 0.1 to 1 µM; in assay [2], < 0.1 µM; in assay [3], 0.1 to 1 µM; in assay [4], < 0.1 µM; in assay [5], 0.1 to 1 µM.
`CCN(c1nc(OC[C@@]23CCCN2C[C@H](F)C3)nc2c(F)c(-c3ccc(F)c4sc(N)c(C#N)c34)c(C(F)(F)F)cc12)C(C)C` [Compound 154]: the IC50 in assay [1] was 0.1 to 1 µM; in assay [2], 0.1 to 1 µM; in assay [3] it was 0.1 to 1 µM; in assay [4] it was < 0.1 µM; in assay [5], 0.1 to 1 µM.
`CCN(c1nc(OC[C@@]23CCCN2C[C@H](F)C3)nc2c(F)c(-c3ccc(F)c4sc(N)c(C#N)c34)c(C(F)(F)F)cc12)C1CC1` [Compound 155]: the concentration for half-maximal inhibition (IC50) in assay [1] was 1 to 10 µM; in assay [2] it was 0.1 to 1 µM; in assay [3] it was 0.1 to 1 µM; in assay [4], < 0.1 µM; in assay [5], 1 to 10 µM.
For `N#Cc1c(N)sc2c(F)ccc(-c3c(C(F)(F)F)cc4c(N5CCCC5)nc(OC[C@@]56CCCN5C[C@H](F)C6)nc4c3F)c12` [Compound 156], the 50% inhibitory concentration (IC50) in assay [1] is 0.1 to 1 µM; in assay [2], 0.1 to 1 µM; in assay [3], 0.1 to 1 µM; in assay [4] it was < 0.1 µM; in assay [5], 0.1 to 1 µM.
In the case of `N#Cc1c(N)sc2c(F)ccc(-c3c(C(F)(F)F)cc4c(N5C[C@@H](F)[C@@H](F)C5)nc(OC[C@@]56CCCN5C[C@H](F)C6)nc4c3F)c12` [Compound 157], the 50% inhibitory concentration (IC50) in assay [1] was 1 to 10 µM; in assay [2] it was 0.1 to 1 µM; in assay [3], 0.1 to 1 µM; in assay [4], < 0.1 µM; in assay [5], 0.1 to 1 µM.
In the case of `N#Cc1c(N)sc2c(F)ccc(-c3c(C(F)(F)F)cc4c(N5C[C@H](F)[C@@H](F)C5)nc(OC[C@@]56CCCN5C[C@H](F)C6)nc4c3F)c12` [Compound 158], the half-maximal inhibitory concentration (IC50) is 0.1 to 1 µM in assay [1]; 0.1 to 1 µM in assay [2]; 0.1 to 1 µM in assay [3]; < 0.1 µM in assay [4]; 0.1 to 1 µM in assay [5].
Turning to `N#Cc1c(N)sc2c(F)ccc(-c3c(C(F)(F)F)cc4c(N5CCC(F)(F)C5)nc(OC[C@@]56CCCN5C[C@H](F)C6)nc4c3F)c12` [Compound 159], the 50% inhibitory concentration (IC50) in assay [1] is 1 to 10 µM; in assay [2], 0.1 to 1 µM; in assay [3], 0.1 to 1 µM; in assay [4] it was < 0.1 µM; in assay [5] it was 0.1 to 1 µM.

The IC50 is the midpoint of a concentration-inhibition curve. A lower IC50 goes with greater potency.
